The source of these data is patent publication US7785850B2, “Heterologus expression of trypanothione reductase from Leishmania donovani in a prokaryotic system” (priority 2004, dated 2010).

Where only a bound is given, the exact number is not on record here.

In assay [1] the target is T1, recombinant Leishmania donovani Trypanothione Reductase (LDdTR) (Leishmania donovani, UniProt P39050, S2A).
T1 construct: GST (pET-41a vector fusion) (N, cleaved yes); made in house; host or cells: E. coli BL21(DE3), pET41a (clone LddTRpET41aDE3)
In words: biochemical.
Experimental: Trypanothione reductase activity was routinely assayed spectrophotometrically at 340 nm, as previously described (25). The reaction mixture contained 100 mM HEPES pH 7.8, 20 μM EDTA, 80 μM NADPH and 50 μM TS2. The reaction was allowed to proceed for 5 min. and change in O.D. was monitored every after 30 sec. One unit of enzyme activity is defined, as that amount of enzyme required to convert 1 μmol of NADPH to NADP per minute at 25° C. […] For comparative kinetic studies, assay was performed at 50 μM NADPH and varying concentration of TS2 (20, 40, 60, 80 & 100) and at 50 μM TS2 and varying concentration of NADPH (20, 40, 60, 80, 100 & 150).

In assay [2] the target is T2, recombinant Leishmania donovani Trypanothione Reductase (Leishmania donovani, UniProt P39050, S2A).
T2 construct: GST (pET-41a vector fusion) (N, cleaved yes); made in house; host or cells: E. coli BL21(DE3), pET41a (clone LddTRpET41aDE3)
In words: Enzyme assay, kinetics and substrate specificity of recombinant purified trypanothione reductase. The conditions noted are these: for Km / Vmax: TS2 varied at 50 μM NADPH, NADPH varied at 50 μM TS2. Format: biochemical. As for the experimental part: Trypanothione reductase activity was routinely assayed spectrophotometrically at 340 nm, as previously described (25). The reaction mixture contained 20-100 mM HEPES pH 7.2-7.8, 20 μM-1 mM EDTA, 80-200 μM NADPH and 15-50 μM TS2. One unit of enzyme activity is defined as that amount of enzyme required to convert 1 μmol of NADPH to NADP per minute at 25° C. Protein was assayed according to the method of Bradford (1976) as supplied by Bangalore Genei with Bovine serum albumin as a standard. For comparative kinetic studies, assay was performed at 50 μM NADPH and at 5-100 μM concentrations of TS2 and at 50 μM TS2 and at 10-200 μM concentrations of NADPH.
Trypanothione reductase activity was routinely assayed spectrophotometrically at 340 nm, as previously described (25). The reaction mixture contained 100 mM HEPES pH 7.8, 20 μM EDTA, 80 μM NADPH and 50 μM TS2. The reaction was allowed to proceed for 5 min. and change in O.D. was monitored every after 30 sec. One unit of enzyme activity is defined, as that amount of enzyme required to convert 1 μmol of NADPH to NADP per minute at 25° C. The purified recombinant enzyme has a specific activity of 12.5 U/mg. protein. Purification procedure leads to 20 fold purification from the soluble content of E. coli lysate. The total yield was 16 mg/lit (FIG. 7 describes the fold purification of Recombinant Leishmania donovani Trypanothione Reductase). […] For comparative kinetic studies, assay was performed at 50 μM NADPH and varying concentration of TS2 (20, 40, 60, 80 & 100) and at 50 μM TS2 and varying concentration of NADPH (20, 40, 60, 80, 100 & 150).

Consider `Nc1nc(N)nc(Nc2ccc([As]=O)cc2)n1` (centres unmarked) [Melarsen Oxide, Melarsen oxide], for which, in assay [1] (read-out: Inhibition of TR), the inhibition at 50 µM was > 95%.
For `NC(=O)C1=CN([C@@H]2O[C@H](COP(=O)(O)OP(=O)(O)OC[C@H]3O[C@@H](n4cnc5c(N)ncnc54)[C@H](OP(=O)(O)O)[C@@H]3O)[C@@H](O)[C@H]2O)C=CC1` [NADPH, Nicotinidine adenine dinucleotide phosphate], in assay [2], the Michaelis-Menten constant (Km) came out at 20 µM and the Vmax was determined as 125 μM/ml/min.
Consider `O.O.O.O=C([O-])[C@H]([O-])[C@@H]([O-])C(=O)[O-].O=C([O-])[C@H]([O-])[C@@H]([O-])C(=O)[O-].[K+].[K+].[Sb+3].[Sb+3]` [SbIII, Potassium antimony tartrate], for which the “Effect on TR activity (in words)” value in assay [1] (studied at 50 and 100 μM concentration) is “profound effect on TR activity in comparison to SAG”.
Take `N[C@@H](CCC(=O)N[C@H]1CSSC[C@H](NC(=O)CC[C@H](N)C(=O)O)C(=O)NCC(=O)NCCCNCCCCNC(=O)CNC1=O)C(=O)O` [TS2, Oxidized Trypanothione]: in assay [2], the “Substrate specificity (reduction catalyzed by purified protein)” value is given as “specifically catalyzed reduction”, the Michaelis-Menten constant (Km) came out at 50 µM and the Vmax came out at 200 μM/ml/min.
As to “Oxidised Glutathione [oxidized glutathione]”, the “Substrate specificity (reduction catalyzed by purified protein)” value in assay [2] is “did not catalyze reduction”.
